Experimental data: patent US5157052A, “Method for inhibiting IgE production” (priority 1990, dated 1992)

Experiments:
[1] = system: IgE; test: Serum IgE response induced by FF1-4D5 + H∂A1 anti-IgD antibodies (ELISA, Assay A / Assay F); assay type: in vivo, mouse (Balb/c female)
Procedure: Mouse hybridoma cells expressing either FF1-4D5 antibody or H∂A1 antibody are thawed, established in culture, and incubated in mice as ascite tumors. FF1-4D5 antibody is a mouse IgG2a monoclonal antibody of the b allotype that binds the Fd fragment of the ∂ chain of the a allotype IgD which activates β cells through antigen internalization and processing, promoting cognate interactions with antigen-specific T cells (D. K. Goroff et al., J. Immunol. 136: 2382 (1986)). H∂A1 antibody is a mouse IgG2b of the b allotype that binds the Fc fragment of the ∂ chain of the a allotype IgD which activates β cells through crosslinking IgD (I. M. Zitron and B. L. Clevinger, J. Exp. Med. 152: 1135 (1980)). Each antibody is purified from their respective ascites tumor fluid. […] Serum from the injected mice is recovered and the mean concentration of IgE determined.
Serum levels of IgE are determined and IgE levels are shown to be inhibited in a dose dependent manner.
ELISA (enzyme linked immunosorbant assay) measurements of IgE are as follows. About 5 μg of B1E3 antibody in 100 μl borate buffered saline (pH8.5) is added to wells of a NuncImmulon II 96 well plate (DiRuscio & Assoc., St. Louis, Mo.) at 37° C. for 90 minutes. The non-bound antibody is removed by flicking the plate. Unreacted sites on the plastic plate are blocked by adding about 200 μl of a 2% solution of newborn bovine serum (NBS) in PBS at 37° C. for 60 minutes. The standard IgE (or an unknown murine serum sample) is diluted to between about 4 ng/ml-256 ng/ml in Hanks-HS (20 mM Hepes, 2% NBS in Hanks Balanced Salt Solution, Gibco, Grand Island, N.Y.) or to 1/200 to 1/1000 in Hanks-HS respectively. 100 μl of standard (or unknown dilutions) are added in triplicate to the wells of the plate and allowed to absorb to B1E3 antibody at about 37° C. for 2-4 hours. The solution is removed by flicking the plate and each well is washed with about 0.5 ml 0.05% Tween 20-PBS 5 times. About 100 μl of biotinylated R1E4, called the primary antibody, diluted to 200 ng/ml is added to all wells and incubated at about 4° C. overnight. The solution is removed by flicking the plate and washed 5 times as described above. The developing reagent (Avidin and biotin-horse radish peroxidase) is incubated in 2% NBS in PBS at ambient temperature for 30 minutes, according to manufacturer's specifications (Vector Laboratories, Burlingame, Calif.). About 100 μl of developing reagent is added to each well and incubated at ambient temperature for 30 minutes. Colorimetric substrate for the developing reagent (ABTS peroxidase substrate system, KPL, Gaithersburg, Md.) is prepared by mixing equal volumes of solutions A and B and incubating at ambient temperature for 60 minutes. The developing reagent solution is removed by flicking the plate and washed 5 times as described above. About 100 μl of the mixture of substrates is added to each well and incubated at ambient temperature for 60 minutes. The optical density of each well is determined on a BioTek ELISA reader (Biotek Instruments, Inc., Burlington, Vermont) and the absorbance data transferred electronically to a DEC VAX mainframe computer. A standard curve is fitted to the IgE standard optical densities using straight line, linear regression statistical fits. IgE in the unknown serum samples is determined by comparing the optical density of the unknown to the standard curve and multiplying that number by the dilution of serum used in the assay.
Stimulation of a transient serum IgE response in mouse with two monoclonal antibodies directed against IgD is carried out as follows.
Mouse hybridoma cells expressing either FF1-4D5 antibody or H∂Al antibody are thawed, established in culture, and incubated in CB6 F1 female mice as an ascites tumor and each immunoglobulin is purified from the ascites fluid as described above. […]

[2] = system: IgE; test: ED50 for inhibition of IgE calculated from the examples; assay type: in vivo, mouse; settings: dose to achieve 50% inhibition of IgE
Procedure: From the data in the above examples, the effective dose of each prostaglandin to achieve 50% inhibition of IgE (ED50) was calculated.

[3] = Diarrheal effects in rats; settings: rat, in vivo, po
Procedure: Briefly, adult Charles River male rats weighing 210-230 g were individually housed and fasted with water available ad libitum for 24 hours prior to the test. The animals (N=6-12) received logarithmically graded prostaglandin doses orally. Immediately after administration, the animals were returned to their cages, and diarrhea, if any, was assessed on an all or none basis for 8 hours after drug treatment. The ED50 and relative potency values were calculated by the logistic method of Berkson.

[4] = system: IgG2a; test: Serum IgG2a in anti-IgD stimulated mice (two site sandwich ELISA, Assay C); assay type: in vivo, mouse (Balb/c female); settings: 40 μg days 3 and 4; for IgG2a ± SD: Table 11
Procedure: Sera from mice treated with compounds in accordance with the method of the invention are analyzed for levels of IgG1, IgG2a, IgG3, and IgM.
Measurement of mouse IgG2a by a two site sandwich ELISA is performed in substantial accordance with the teaching of Assay B except with the following changes. NuncImmulon II plates are used in this assay. The IgG2a standard is purchased from Southern Biotech. The standard curve is linear between 4-250 ng/ml. Serum containing IgG2a is diluted 1/6400 to 1/1,000,000. About a 1/6,000 dilution of goat anti mouse IgG2a (Southern Biotech) conjugated to alkaline phosphatase is used.
Sera from the mice described in Example 13 are analyzed for the levels of IgG1, IgG2a, and IgG3 by Assays B, C, and D, respectively.
Two groups of 4 Balb/c female mice per group are injected with both 100 μg FF1-4D5 antibody and 100 μg H∂A1 antibody. One of these groups is a stimulated control designated Group B. On day 3 and 4, the other group is injected with 40 μg (±) methyl 11α, 16-dihydroxy-1-methyl-9-oxoprosta-4Z,13E-dien-1-oate. Another group is injected with only PBS as an unstimulated control (Group A). On day -1 and 8, 50-100 μl of serum is recovered and analyzed for IgE, IgG1 and IgG2a by Assays A, B, and C, respectively.
3 groups of 4 Balb/c female mice per group are injected with both 100 μg FF1-4D5 antibody and 100 μg H∂A1 antibody on day 0. Group A is given no further treatment. On day 3 and 4, one group of mice is injected with 20 μg (±) methyl 2-[2-[3R-3α-hydroxy-2β-(4-hydroxy-4-methyl-1E-octenyl-5-oxo-1α-cyclopentyl]-methyl]cyclopropanebutanoate (Group B) and another group with 20 μg (±) methyl 2-[2-[3R-3α-hydroxy-2β-(4-hydroxy-4-methyl-1E-octenyl)-5-oxo-1α-cyclopentyl]ethyl]cyclopropanepropanoate (Group C) as in Example 13. On day -1 and 8, 50-100 μl of serum is recovered and analyzed for IgE, IgG1, IgG2a and IgG3 by Assays A, B, C and D, respectively. The selectivity of inhibition of IgE is shown in Table 12.
Three groups of 5 Balb/c female mice per group are injected with both 100 μg FF1-4D5 antibody and 100 μg H∂A1 antibody on day 0. Group A is a control with no further treatment. On day 3 and 4, the mice are injected with 20 μg (±) methyl 11α,16-dihydroxy-4,4,16-trimethyl-9-oxoprosta-13E-en-1-oate (Group B) or 20 μg (±) methyl 11α,16-dihydroxy-16-methyl-9-oxoprosta-3,5Z,13E-trien-1-oate (Group C) as in Example 13. On day -1 and 8, […] of serum is recovered and analyzed for IgE, IgG1, IgG2a, IgG3 and IgM by Assays A, B, C, D and E, respectively.

[5] = system: IgG1; test: Serum IgG1 in anti-IgD stimulated mice (two site sandwich ELISA, Assay B); assay type: in vivo, mouse (Balb/c female); settings: 40 μg days 3 and 4; for IgG1 ± SD: Table 11
[6] = Table 15, 20 μg days 3 and 4, day 8 (control 5090)
[7] = Table 15, 20 μg days 3 and 4, day -1 baseline before treatment
[8] = Table 16, 10 μg days 3 and 4, day 8 (control 8548)
[9] = Table 16, 10 μg days 3 and 4, day -1 baseline before treatment
[10] = day -1 baseline before treatment

For CCCCC(C)(O)C/C=C/[C@H]1[C@H](O)CC(=O)[C@@H]1CCCCCCC(=O)Oc1ccc(NC(C)=O)cc1 (mixture of isomers) [(±) 4-(acetylamino)phenyl-11α,16-dihydroxy-16-methyl-9-oxoprost-13E-en-1-oate], which “de novo IgE synthesis” value ([1]; 20 μg days 3 and 4, Example 26) is on record?
Its value is “inhibit de novo IgE synthesis”.

And the “IgE ± SD” value [1, 6]?
The value was 1880 ± 319 ng/mL.

And the “IgE ± SD” value [1, 7]?
The value was < 800 ng/mL.

What about the “ED50 IgE Inhibition” value [2] of the same compound?
Its value is 1.0 μg/mouse/TID.

Which “de novo IgE synthesis” value ([1]; 10 μg days 3 and 4, Example 27) does the source give for CCCCC(C)(O)CCC[C@H]1[C@H](O)CC(=O)[C@@H]1CCCCCCC(=O)OC (mixture of isomers) [(±) methyl-11α,16-dihydroxy-16-methyl-9-oxoprostan-1-oate] here?
Its value is “inhibit de novo IgE synthesis”.

And the “IgE ± SD” value [1, 8]?
Its value is 3844 ± 238 ng/mL.

What about the “IgE ± SD” value [1, 9] of the same compound?
The value was < 1600 ng/mL.

What about the “ED50 IgE Inhibition” value [2] of the same compound?
Its value is 4.8 μg/mouse/TID.

Which “de novo IgE synthesis” value ([1]; 40 μg days 3 and 4) does the source give for CCCCC(C)(O)C/C=C/[C@H]1[C@H](O)CC(=O)[C@@H]1CC/C=C\CCC(=O)OC (mixture of isomers) [(±) methyl 11α,16-dihydroxy-16-methyl-9-oxoprosta-4Z,13E-dien-1-oate] here?
Its value is “inhibits de novo IgE synthesis”.

And the “IgE ± SD” value ([1]; Table 11, 40 μg days 3 and 4, day 8 (control 15890))?
Its value is 3973 ± 905 ng/mL.

And the “IgE ± SD” value ([1]; Table 11, 40 μg days 3 and 4, day -1 baseline before treatment)?
Its value is 1717 ± 313 ng/mL.

And the TD50 at 8 h [3]?
The TD50 at 8 h was 0.049 mg/kg.

And the “effect on IgG2a” value [4]?
The value was “does not effect IgG1 or IgG2a”.

And the “IgG2a ± SD” value ([4]; day 9 (control 1056))?
The value was 1058 ± 202 µg/mL.

And the “IgG2a ± SD” value [4, 10]?
The value was 160 ± 130 µg/mL.

And the “ED50 IgE Inhibition” value [2]?
Its value is 4.0 μg/mouse/TID.

And the “effect on IgG1” value [5]?
Its value is “does not effect IgG1 or IgG2a”.

And the “IgG1 ± SD” value ([5]; day 9 (control 19800))?
Its value is 37728 ± 6913 µg/mL.

What about the “IgG1 ± SD” value [5, 10] of the same compound?
Its value is 2331 ± 2212 µg/mL.

What does the source list for CCCCC(C)(O)C/C=C/[C@H]1[C@H](O)CC(=O)[C@@H]1CCCCCCC(=O)OC (mixture of isomers) [(±) methyl 11α,16-dihydroxy-16-methyl-9-oxoprost-13E-en-1-oate]?
de novo IgE synthesis ([1]; 10 μg days 3 and 4, Example 27): inhibit de novo IgE synthesis; IgE ± SD [1, 8]: 2123 ± 257 ng/mL; IgE ± SD [1, 9]: < 1600 ng/mL; TD50 at 8 h [3]: 0.36 mg/kg; ED50 IgE Inhibition [2]: 1.5 μg/mouse/TID

Which results are given for CCCCC(C)(O)C/C=C/[C@H]1[C@H](O)CC(=O)[C@@H]1CCCCCCC(=O)OC(C)C (relative stereo) [(±) methylethyl-11α,16-dihydroxy-16-methyl-9-oxoprost-13E-en-1-oate]?
IgE ± SD [1, 8]: 2127 ± 149 ng/mL; IgE ± SD [1, 9]: < 1600 ng/mL; ED50 IgE Inhibition [2]: 1.5 μg/mouse/TID

For CCCCC(C)(O)C/C=C/[C@H]1[C@H](O)CC(=O)[C@@H]1CCCCCCC(=O)O (mixture of isomers) [(±) 11α,16-dihydroxy-16-methyl-9-oxo-prost-13E-en-1-oic acid], which “de novo IgE synthesis” value ([1]; 20 μg days 3 and 4, Example 26) is on record?
Its value is “inhibit de novo IgE synthesis”.

What about the “IgE ± SD” value [1, 6] of the same compound?
Its value is 1499 ± 132 ng/mL.

And the “IgE ± SD” value [1, 7]?
The value was 1029 ± 362 ng/mL.
